Measurements taken from PMC4393083, “Antiviral Activity and Possible Mechanism of Action of Constituents Identified in Paeonia lactiflora Root toward Human Rhinoviruses” (PLoS ONE, 2015).
Like-named read-outs stand apart in the source and are kept apart here.

How the values were obtained:
[1] = system: IL-6; assay: IL-6 mRNA expression, qRT-PCR in MRC5; assay type: cell-based, human; settings: MRC5, 2 days after HRV-2 or HRV-4 infection; 100 μg/mL PA, 20 μg/mL PGG
Method: (§1) To evaluate the level of gene expression, real-time qRT-PCR with SYBR Green dye was carried out. HRV-2 or HRV-4 infected and noninfected cultures of MRC5 monolayers grown in 25 cm^2 cell culture flasks (Corning, NY) were treated with 100 μg/mL PA or 20 μg/mL PGG. After incubation at 37°C and 5% CO2 for 2 days, total RNA was extracted from the culture cells using the RNeasy Plus Mini Kit (Qiagen, Hilden, Germany) according to the manufacturer’s instructions. Contaminated genomic DNA was removed using RQ1 RNase-free DNase (Promega, Madison, WI). Complementary DNA (cDNA) was synthesized using 1 μg total RNA through a reverse transcription reaction using the SuperScript First-Strand Synthesis Kit (Invitrogen, Carlsbad, CA). […] The PCR conditions were as follows: 50°C for 2 min, 95°C for 10 min, and then 50 cycles of 95°C for 15 s and either 60°C [β2-microglobulin (B2M), interleukin (IL)-6, IL-8, LDLR, ICAM-1, HRV-2, and HRV-4] or 58°C (B2M and IL-1β) or 55°C [B2M, Toll-like receptor 3 (TLR3), tumor necrosis factor (TNF), and interferon beta (IFNβ)] for 30 s. mRNA expression level of target gene was normalized to mRNA expression level for the housekeeping gene B2M and analyzed by the 2^–ΔΔCT method using StepOne Software v2.1 and DataAssist Software (Applied Biosystems). […]

[2] = system: HRV-4; assay: Cytopathic effect inhibition assay (MTT), HRV-4 in HeLa cells; assay type: cell-based, human rhinovirus; settings: read-out: IC50 (95% CL) HRV-4
Method: Extraction procedures of air-dried root of P. lactiflora were performed as described previously by Ngan et al.. For isolation of active principles, viral CPE inhibition assay toward HRV-4 in HeLa cell was used. […]. Column fractions were monitored by TLC on silica gel plates developed with chloroform and methanol (7:3 by volume) mobile phase. Fractions with similar R f values on the TLC plates were pooled. Active fractions 4 to 5 (EI, 2.44 g) and 7 (EII, 0.569 g) were obtained. The active fraction EI was rechromatographed on a silica gel column by elution with chloroform and methanol (70:30 by volume) to give nine fractions (each about 450 mL). A preparative HPLC was used for separation of constituents from the active fractions 3 to 5 (0.176 g). The column was a 4.6 mm i.d. × 150 mm Eclipse XDB-C18 (Agilent, Santa Clara, CA) using a mobile phase of methanol and water (3:7 by volume) at a flow rate of 0.5 mL/min. Chromatographic separations were monitored using a UV detector at 260 nm. […]. The three antiviral principles were characterized as paeonol (PA) (1), gallic acid (GA) (2), and 1,2,3,4,6-penta-O-galloyl-β-D-glucopyranose (PGG) (3) (Fig 1) by spectroscopic analyses, including MS and NMR. PA (1): compound 1 was isolated as an antibacterial principle from P. lactiflora root in our previous work, and the spectral data of compound 1 was largely identical to the published data. GA (2) was identified on the basis of the following evidence: white powder. UV (MeOH): λmax nm = 260. FT-IR: v max cm^–1 = 3491–3063 (OH stretch), 1608 (aromatic C = C). […] The interpretations of proton and carbon signals of compound 2 were largely consistent with those of Sakar et al.. PGG (3): compound 3 was isolated as an antibacterial principle from P. lactiflora root in our previous work, and the spectral data of compound 3 was largely identical to the published data.
Monolayers of HeLa and MRC5 cells were seeded onto a 96-well culture plate as stated previously. Subsequently, 90 μL media containing several different concentrations (1–1000 μg/mL) of each test material in DMSO was put into the wells, and then 10 μL of 10×TCID50 of the virus stock was added to produce an appropriate CPE within 2 days after infection. Ribavirin served as a reference control and was similarly prepared. Negative controls consisted of the DMSO solution. Viral inhibition rate (VIR) (%) was calculated according to the formula [21], VIR = (A tV—A cV)/(A cd—A cV) × 100, where A tV is the optical density measured with a given concentration of the test compound in HRV infected cells; A cV is the optical density measured for the control untreated HRV infected cells; A cd is the optical density measured for the control untreated HRV uninfected cells.
The CC50 and IC50 values were determined using GraphPad Prism 5 software program (GraphPad Software, La Jolla, CA). […] The selectivity index (SI) was determined as the ratio of CC50 to IC50 [23]. All data represent the mean ± SD of duplicate or triplicate samples of three independent experiments. Statistical analyses were carried out using SAS 9.13 program (SAS Institute, Cary, NC). Data from two groups were analyzed by a Student’s t-test, and multiple groups were analyzed by a one-way analysis of variance and Bonferroni multiple comparison post-test.

[3] = system: IL-1β; assay: IL-1β mRNA expression, qRT-PCR in MRC5; assay type: cell-based, human; settings: MRC5, 2 days after HRV-2 or HRV-4 infection; 100 μg/mL PA, 20 μg/mL PGG
Method: as §1

[4] = Human rhinovirus sp., HRV4, HeLa

## COc1ccc(C(C)=O)c(O)c1 [PA, paeonol]
[1]
  effect on HRV-induced IL-6 mRNA expression: significantly reduced
[2]; [4]
  IC50: 514 µM
[2]
  IC50: 514 µM
[3]
  effect on HRV-induced IL-1β mRNA expression: disappeared or was significantly reduced

## O=C(OC[C@H]1O[C@@H](OC(=O)c2cc(O)c(O)c(O)c2)[C@H](OC(=O)c2cc(O)c(O)c(O)c2)[C@@H](OC(=O)c2cc(O)c(O)c(O)c2)[C@@H]1OC(=O)c1cc(O)c(O)c(O)c1)c1cc(O)c(O)c(O)c1 [PGG, 1,2,3,4,6-penta-O-galloyl-β-D-glucopyranose]
[1]
  effect on HRV-induced IL-6 mRNA expression: significantly reduced
[2]; [4]
  IC50: 14.4 µM
[2]
  IC50: 14.4 µM
[3]
  effect on HRV-induced IL-1β mRNA expression: disappeared or was significantly reduced

## NC(=O)c1ncn([C@@H]2O[C@H](CO)[C@@H](O)[C@H]2O)n1 [Ribavirin, reference compound]
[2]; [4]
  IC50: 324 µM
[2]
  IC50: 324 µM
